Results from article PMC12435690, “KYLO-0603, a novel liver-targeting, thyroid hormone receptor-β agonist for the inhibition of MASH progression” (PLOS One, 2025).

Assays:
[1] = in vitro; conditions: Sprague-Dawley, rat, plasma
Method: (§1) We evaluated the metabolic stability of Kylo-0603 in the plasma of CD-1 mice, Sprague–Dawley (SD) rats, beagle dogs, cynomolgus monkeys, and humans. The plasma from the five species was mixed with Kylo-0603 (2 μM) and incubated at 37°C in a thermostatic water tank. The plasma concentrations of Kylo-0603 were monitored via LC-MS/MS at 0, 10, 30, 60, and 120 min.

[2] = in vitro; conditions: cynomolgus monkey, plasma
Method: as §1

[3] = tested on: MASH mouse model (F2 ~ 3); experiment: MASH mouse model (F2~3) induced with HFD and CCl4; format: in vivo, C57BL/6J mice; design: Steatosis score / Lobular inflammation score / Ballooning score / NAFLD activity score / Fibrosis Score: scale not given here
Method: A total of 80 5-week-old C57BL/6J male mice were randomly assigned to two groups based on their body weight: a control group (n = 10) and a high-fat diet group (HFD, D12492, n = 70). During the eight-week feeding period, the mice in the two groups were provided with the corresponding diets, including shavings bedding, and their weights were recorded once a week. The change of the weight of each group of mice at a given time were recorded. […] The control diet group was provided with a control diet supplemented with the solvent vehicle, while the HFD control group was given a high-fat diet with the same supplement. The remaining […] groups were provided a high-fat diet containing the solvent and administered a range of doses of Kylo-0603, namely, 0.1 mg/kg, 0.3 mg/kg, 1 mg/kg, 3 mg/kg, and 10 mg/kg. The HFD control group was administered intraperitoneal injections of 0.2 ml/kg CCl4 twice a week for 8 weeks, during which time the mice were fed the same diets as before. The mice were weighed weekly, and the dosage for each week was determined based on their body weight at the commencement of that week. After a period of fasting of between 5 and 6 hours on the day following the final administration of the drug, the mice in each group were euthanized, whole blood was collected from either the orbits or the heart, and the serum was separated and stored at −80°C. The heart and liver tissues of the mice in each group were weighed and photographed. The heart tissues were then quickly frozen in liquid nitrogen and stored in a refrigerator at −80°C, and the middle lobe of the liver was divided into four parts. Two of these samples were quickly frozen in liquid nitrogen and stored at −80°C (for RNA sequencing). The remaining two portions were fixed in a 4% Paraformaldehyde solution and subsequently dehydrated for paraffin embedding and OCT embedding. […] For the quantification of hepatic lipid content, liver tissues were meticulously homogenized in isopropanol (1:9 tissue to isopropanol by mass/volume) on ice. The homogenate was then incubated overnight at 4°C and subsequently centrifuged to […]. The resulting solution was analyzed for TG and Chol using a Hitachi 7020 automated hematochemistry system.
The samples were then washed with pure water.

[4] = Metabolic stability in plasma (beagle dogs); conditions: dog
Method: as §1

[5] = tested on: liver of the MASH mouse models (F2 ~ 3); experiment: Gene expression analysis (transcriptome sequencing) in liver of MASH mouse models; format: in vivo, C57BL/6J mice
Method: Transcriptome sequencing was performed on the Illumina sequencing platform, and the library sequencing and biotechnological analysis were performed by Beijing Novozymes Technology Co.
To explore the mechanism by which Kylo-0603 promotes lipid metabolism, we used Illumina’s NEBNext® UtraTM RNA Library Prep Kit to examine the expression of relevant genes in the livers of the MASH mouse models (F2 ~ 3) after Kylo-0603 administration (Fig 8). We first examined the expression of THR-regulated genes, including iodothyronine deiodinase 1 (Dio1), malic enzyme 1 (Me1), and thyroid hormone responsive (Thrsp). Me1 encodes an enzyme that catalyzes the conversion of malate to pyruvate while concomitantly generating NADPH from NADP, and its upregulation promotes energy metabolism. Thrsp is mainly a nuclear protein induced by thyroid hormones, carbohydrate intake, adipose tissue differentiation and lactation and plays an important role in the regulation of lipid metabolism. […] LDL-R (low-density lipoprotein receptor) promotes the cellular uptake of LDL and facilitates cholesterol degradation. […] This finding was consistent with a dose-dependent reduction in the serum LDL-C level (Fig 9A). […] This therapeutic effect was validated by assessing liver histopathology in animal models. Kylo-0603 inhibited the genes encoding the inflammatory factors Tnfrsf1a, IL6, IL17rb, and IL17ra (Fig 9B).
Fig 9 Effects of Kylo-0603 on the expression of related genes of the MASH mouse models. Total RNA was extracted from the frozen liver tissue of the MASH mouse models (F2 ~ 3), and the mice were injected daily with saline or Kylo-0603 at a dosage of 0.1–3 mg/kg/day. Transcriptome sequencing is based on the Illumina sequencing platform. The relative expression of a gene was calculated by normalizing the true expression level of the target gene to the expression level of that gene in the control group.

[6] = Metabolic stability in plasma (humans); conditions: human
Method: as §1

[7] = in vitro; conditions: CD-1, mouse, plasma
Method: as §1

[8] = Metabolic stability in plasma (SD rats); conditions: SD rat plasma
Method: as §1

[9] = 3 mg/kg, 8 weeks, vs HFD + CCl4 + Vehicle
[10] = 10 mg/kg, 8 weeks, vs HFD + CCl4 + Vehicle
[11] = abstract: MASH mouse model, maximum effect

CC(=O)N[C@H]1[C@H](OCCCCCCNC(=O)CCOCC(COCCC(=O)NCCCCCCO[C@@H]2O[C@H](CO)[C@H](O)[C@H](O)[C@H]2NC(C)=O)(COCCC(=O)NCCCCCCO[C@@H]2O[C@H](CO)[C@H](O)[C@H](O)[C@H]2NC(C)=O)NC(=O)CCCCCNC(=O)COc2cc(C)c(Cc3ccc(O)c(C(C)C)c3)c(C)c2)O[C@H](CO)[C@H](O)[C@@H]1O [Kylo-0603]
half-life at 2 μM [1]: > 6.21 h
half-life at 2 μM [2]: > 6.21 h
decrease of fibrosis score ([3]; 3 mg/kg and 10 mg/kg, 8 weeks, vs HFD + CCl4 + Vehicle): 0.6 points
ALT decrease ([3]; 3 mg/kg, 8 weeks, serum): 73.8%
AST decrease ([3]; 3 mg/kg, 8 weeks, serum): 76.3%
decrease in ballooning degeneration score [3, 9]: 0.7 points
reduction in hepatic steatosis score [3, 9]: exceeding 1.0 points
reduction in inflammation score [3, 9]: exceeding 1.0 points
reduction of NAS (NAFLD Activity Score) [3, 9]: 3.5 points
decrease in ballooning degeneration score [3, 10]: 0.8 points
reduction in hepatic steatosis score [3, 10]: exceeding 1.0 points
reduction in inflammation score [3, 10]: exceeding 1.0 points
reduction of NAS (NAFLD Activity Score) [3, 10]: 3.7 points
TSH levels ([3]; 8 weeks, blood): decreasing trends
levels of thyroid hormones T3, fT3, T4 and fT4 ([3]; 8 weeks, blood): increasing trends
Ballooning score ([3]; HFD + CCl4, 0.1 mg/kg, 8 weeks): 1.4 ± 0.5
Fibrosis Score ([3]; HFD + CCl4, 0.1 mg/kg, 8 weeks): 2.8 ± 0.4
Lobular inflammation score ([3]; HFD + CCl4, 0.1 mg/kg, 8 weeks): 2.4 ± 0.5
NAFLD activity score ([3]; HFD + CCl4, 0.1 mg/kg, 8 weeks): 4.7 ± 0.9
Steatosis score ([3]; HFD + CCl4, 0.1 mg/kg, 8 weeks): 0.8 ± 1.0
Ballooning score ([3]; HFD + CCl4, 0.3 mg/kg, 8 weeks): 1.4 ± 0.5
Fibrosis Score ([3]; HFD + CCl4, 0.3 mg/kg, 8 weeks): 2.3 ± 0.5
Lobular inflammation score ([3]; HFD + CCl4, 0.3 mg/kg, 8 weeks): 2.2 ± 0.4
NAFLD activity score ([3]; HFD + CCl4, 0.3 mg/kg, 8 weeks): 4.0 ± 0.9
Steatosis score ([3]; HFD + CCl4, 0.3 mg/kg, 8 weeks): 0.3 ± 0.5
Ballooning score ([3]; HFD + CCl4, 1 mg/kg, 8 weeks): 2.0 ± 0.0
Fibrosis Score ([3]; HFD + CCl4, 1 mg/kg, 8 weeks): 2.3 ± 0.5
Lobular inflammation score ([3]; HFD + CCl4, 1 mg/kg, 8 weeks): 2.2 ± 0.4
NAFLD activity score ([3]; HFD + CCl4, 1 mg/kg, 8 weeks): 4.3 ± 0.5
Steatosis score ([3]; HFD + CCl4, 1 mg/kg, 8 weeks): 0.1 ± 0.3
Ballooning score ([3]; HFD + CCl4, 3 mg/kg, 8 weeks): 1.1 ± 0.3
Fibrosis Score ([3]; HFD + CCl4, 3 mg/kg, 8 weeks): 2.0 ± 0.0
Lobular inflammation score ([3]; HFD + CCl4, 3 mg/kg, 8 weeks): 1.4 ± 0.5
NAFLD activity score ([3]; HFD + CCl4, 3 mg/kg, 8 weeks): 2.8 ± 1.0
Steatosis score ([3]; HFD + CCl4, 3 mg/kg, 8 weeks): 0.2 ± 0.4
Ballooning score ([3]; HFD + CCl4, 10 mg/kg, 8 weeks): 1.0 ± 0.7
Fibrosis Score ([3]; HFD + CCl4, 10 mg/kg, 8 weeks): 2.0 ± 0.0
Lobular inflammation score ([3]; HFD + CCl4, 10 mg/kg, 8 weeks): 1.1 ± 0.5
NAFLD activity score ([3]; HFD + CCl4, 10 mg/kg, 8 weeks): 2.6 ± 1.0
Steatosis score ([3]; HFD + CCl4, 10 mg/kg, 8 weeks): 0.4 ± 1.0
decrease of fibrosis score ([3]; abstract): 0.6 points
decrease of ballooning score ([3]; abstract, maximum effect): 0.8 points
decrease of inflammation score ([3]; abstract, maximum effect): 1.8 points
reduction of NAS ([3]; abstract, maximum effect): up to 3.7 points
lowering of LDL-C levels [3, 11]: up to 88.2%
lowering of serum cholesterol levels [3, 11]: ≤ 69.2%
plasma stability [4]: unstable
Atgl expression [5]: dose-responsive elevation
Cpt1a expression [5]: dose-dependent upregulation
Pdk4 expression [5]: significant increases
Srebf1 and Scd1 expression [5]: coordinated downregulation
genes encoding the inflammatory factors Tnfrsf1a, IL6, IL17rb, IL17ra [5]: inhibited
LDL-R gene expression ([5]; dose-dependent): upregulated
expression of Dio1, Thrsp and Me1 ([5]; dose-dependent): significantly upregulated
peroxisome-related genes ([5]; dose-dependent): upregulation
expression of collagen synthesis genes ([5]; with increasing doses): significantly suppressed
plasma stability [6]: stable
half-life at 2 μM [7]: > 6.21 h
plasma stability [8]: stable
